Measurements taken from US12721928B1, “Active agent-eluting hemostatic agents for prevention of surgical site infection” (priority 2020, dated 2026).
Like-named read-outs stand apart in the source and are kept apart here.

Columns and labels:
cultured cells = details: EDC up to 10 mg/mL; cited from earlier work
[1] = FTIR of antibiotic released from hemostatic agents (structural integrity); details: all released samples
Text: FTIR spectra were collected on a Nicolet Is10 to ensure structural integrity of antibiotics released from the hemostatic agents. Released samples were scanned in the range between 4000 and 800 cm^−1.

S. aureus = assay: Modified Kirby-Bauer disk diffusion test; assay type: cell-based, Staphylococcus aureus; details: filter paper on S. aureus coated agar
Experimental: Inhibition of S. Aureus 25293 or E. Coli (Migula) Castellani and Chalmers by antibiotic-eluting hemostatic agents was determined through modified Kirby-Bauer disk diffusion tests and microdilution assays. Throughout all Kirby-Bauer tests, agar plates were formed using tryptic soy agar. The plates were subsequently coated with the appropriate strain within its exponential growth phase at a concentration of 10^8 CFU/mL. Filter papers that had been incubated with the hemostatic agents, gelatin, or pure antibiotic equivalent to 24-hour release concentrations for two hours were then immediately placed upon the plates. Zones of inhibition were measured and photographed following 16-18 hours of incubation at 37° C.

mammalian cells = details: cited from earlier work

CCN=C=NCCCN(C)C [EDC, 1-ethyl-3-(3-dimethylaminopropyl) carbodiimide]
cytotoxicity to cultured cells (cultured cells): negligibly cytotoxic

CC(C)(O/N=C(\C(=O)N[C@@H]1C(=O)N2C(C(=O)[O-])=C(C[n+]3ccccc3)CS[C@H]12)c1csc(N)n1)C(=O)O [ceftazidime]
basic chemical stability of released antibiotic [1]: confirmed

CCCCCCCCCC(=O)N[C@@H](Cc1c[nH]c2ccccc12)C(=O)N[C@H](CC(N)=O)C(=O)N[C@@H](CC(=O)O)C(=O)N[C@@H]1C(=O)NCC(=O)N[C@@H](CCCN)C(=O)N[C@@H](CC(=O)O)C(=O)N[C@H](C)C(=O)N[C@@H](CC(=O)O)C(=O)NCC(=O)N[C@H](CO)C(=O)N[C@@H]([C@H](C)CC(=O)O)C(=O)N[C@@H](CC(=O)c2ccccc2N)C(=O)O[C@@H]1C [daptomycin]
zone of inhibition (ZOI) (S. aureus): clear zone of inhibition

CN[C@H](CC(C)C)C(=O)N[C@H]1C(=O)N[C@@H](CC(N)=O)C(=O)N[C@H]2C(=O)N[C@H]3C(=O)N[C@H](C(=O)N[C@H](C(=O)O)c4cc(O)cc(O)c4-c4cc3ccc4O)[C@H](O)c3ccc(c(Cl)c3)Oc3cc2cc(c3O[C@@H]2O[C@H](CO)[C@@H](O)[C@H](O)[C@H]2O[C@H]2C[C@](C)(N)[C@H](O)[C@H](C)O2)Oc2ccc(cc2Cl)[C@H]1O [vancomycin]
zone of inhibition (ZOI) (S. aureus): clear zone of inhibition
toxicity to mammalian cells (mammalian cells; each component separately): minimally toxic
basic chemical stability of released antibiotic [1]: confirmed

gelatin
toxicity to mammalian cells (mammalian cells): minimally toxic
